# According to US20100247590A1, “Peptide-Based Systems For Delivery Of Cosmetic Agents” (JOHNSON & JOHNSON, priority 2009, published 2010):
# pKd: −log10 of the molar value. Read-outs that look alike come from different tables or passages of the source. No end group written: not given here.
# Assays:
# [1] = fluorescence microscopy, FIG. 1
# Experimental: A biotinylated peptide and streptavidin-coated bead system was used to illustrate the coupling of beads to hair in accordance with the methods and compositions of this invention.
# A human hair sample was placed in an aqueous solution containing 20 mM of HCP5 dimer peptide (SEQ ID NO: 204) derived in accordance with the methods set forth herein. […] The HCP5 dimer was purchased from American Peptide Co., Inc. (Sunnyvale, Calif.) in both biotinylated (SEQ ID NO: 205) and non-biotinylated (SEQ ID NO: 204) versions (a single lysine residue was added to the C-terminus of the biotinylated version to facilitate biotin coupling).
# Hair samples were pretreated by exposing the hair samples to either the biotinylated or the non-biotinylated peptide. Ten strands of natural dark brown hair (International Hair Importers), three inches in length, were pre-washed with 2% SLES for 30 seconds, then rinsed extensively with DI water. The hair strands were then immersed in 10 mL of a 5-20 micromolar solution of peptide for up to one hour. Ten hair samples were exposed to the biotinylated peptide and ten hair samples were exposed to non-biotinylated peptide. […]
# After the incubation period ended, fluorescence microscopy was used to view the binding of 40 nm fluorescently-labeled streptavidin-coated polystyrene particles to hair.
# [2] = 200 nm streptavidin-coated iron oxide beads; FIGS. 4A and 4B
# Text: Humans can perceive color that is in about the 400 nm to 700 nm range. Ultraviolet light, i.e., 200-400 nm is not visible to humans.
# [3] = Visual color assessment of hair treated with peptide then streptavidin-coated iron oxide beads (sequential coloring); conditions: for perceptible color: Tables 17-19; for color intensity value (0-5, 0 no color deposition, 5 deepest color): Table 15, streptavidin-coated iron oxide beads 500 nm
# Experimental: A biotinylated peptide and streptavidin-bead system was used to color hair. Sequential deposition was achieved by the following process.
# Miniature hair tresses of approximately 1 inch in length containing 100% unpigmented hair were placed in an aqueous solution with 20 mM of peptides (in DI water or Tris Buffered Saline, pH 7.2, 5-150 mM ionic strength), for up to one hour at room temperature, derived in accordance with the methods set forth herein.
# Hair samples were pretreated by exposing the hair to different peptides. The peptide created a layer on the hair. Hair samples with a peptide layer were rinsed with SLES solution to remove excess peptide. Next, the peptide-treated hair samples were incubated with streptavidin tagged iron oxide particles (Bangs Laboratories, Inc., Fishers, Ind.; Ademtech, Inc., Pessas, France) to allow the binding between biotin and streptavidin or between the streptavidin-binding domain in HC260 and streptavidin. Particles were purchased in dispersed form and were diluted to 0.025-1 wt % by adding a specified amount of either DI water or Coupling Buffer from Ademtech. Binding was permitted to take place during an incubation period for up to 24 hours at room temperature (˜22° C.) in the dark. Samples were continuously inverted end-over-end during the binding duration incubation period.
# A color scale for the associated color intensity of iron oxide treated hair was defined as (0-5), where 0 is no color deposition and 5 is the deepest color.
# [4] = biotinylated peptide, streptavidin-HRP ELISA
# Text: See, e.g., Example 3 of U.S. Patent Application Publication 2005/022683; hereby incorporated by reference. The MB50 provides an indication of the strength of the binding interaction or affinity of the components of the complex. […] For example, a peptide with a nanomolar (nM) MBso binds more tightly than a peptide with a micromolar (μM) MB50.
# The purpose of this Example was to determine the affinity and specificity of the various hair-binding peptides for hair and pigment surfaces, measured as MB50 values, using an ELISA assay. Each of the short, linear peptides were originally identified using phage display. Unless otherwise indicated, the sequences provided in Example 2 include a C-terminal lysine residue that was biotinylated for detection purposes.
# The MB50 measurements of biotinylated peptides binding to hair and to red iron oxide particles (Unipure Red from Sensient Technologies, Milwaukee, Wis.) were made using hair bundles. The hair samples were assembled in bundles consisting of 100 hairs about 1 cm long which were bundled together using narrow tape at one end. The hair bundles were incubated in SUPERBLOCK® blocking buffer (Pierce Chemical Co., Rockford, Ill.) for 1 hour at room temperature (˜22° C.), followed by 3 washes with TBST (TBS in 0.05% TWEEN® 20). Peptide binding buffer consisting of various concentrations of biotinylated peptide in TBST and 1 mg/mL BSA was added to the hair bundles and incubated for 1 hour at room temperature, followed by 6 TBST washes. Then, the streptavidin-horseradish peroxidase (HRP) conjugate (Pierce Chemical Co., Rockford, Ill.) was added to each well (1.0 μg per well), and incubated for 1 h at room temperature, followed by 6 times of washes with TBST. All hair bundles were transferred to new tubes and then the color development and the absorbance measurements were performed following standard protocols. The results were plotted as A450 versus the concentration of peptide using GraphPad Prism 4.0 (GraphPad Software, Inc., San Diego, Calif.).
# [5] = Peptide-mediated binding of Co-NTA magnetic beads to gray hair, visual rating on magnet; parameters: species or system human; conditions: Table 11; peptide 0.2 μM
# Experimental: Approximately 5 mg of 5 mm long hair strands (90% gray, human) were transferred to 2-mL microcentrifuge tubes. Approximately 1 mL of TBST0.1 buffer (25 mM Tris, 150 mM NaCl, pH7.2, with 0.1% TWEEN®-20) or the same buffer including varying concentrations of HC263 peptide was added to the hair.
# The mixtures were shaken on a Nutator for one hour at room temperature (˜22° C.). The hairs were washed three times with TBST0.5 buffer (25 mM Tris, 150 mM NaCl, pH 7.2, with 0.5% TWEEN®-20). After washing, the hairs were resuspended in 900 μL Talon buffer (50 mM sodium phosphate, pH 8.0, 300 mM sodium chloride, 0.01% TWEEN®-20). A subset of hair/peptide conjugates were washed additionally one time with 1 mL of 0.25% SLES (Sodium Lauryl Ether Sulfate) for 5 min at room temperature on the Nutator, then washed two times with 1 mL TBST0.1 buffer. Approximately 0.2 mg of TALON™ beads (DYNABEADS® TALONT™, Invitrogen, Catalog#101.01D) were washed twice with TALON™ buffer on the DYNAL® MPC™ magnet and added to each reaction in 100 μL TALON™ buffer. […]
# Beads binding to the hair were expected to co-migrate on the sides of the tubes once applied to the magnet. The strength of binding was visually assessed and rated on a scale of 0 (little or no observed binding) to 5 (highest amount of observed binding). […]
# [6] = biological target: streptavidin (Streptomyces avidinii, UniProt P22629); test: biochemical
# [7] = Table 17, 200 nm particles, initial, before washing with water
# [8] = Table 18, 200 nm particles, after washing with water
# [9] = Table 18, 500 nm particles, after washing with water
# [10] = Table 19, 200 nm particles, after 0.25% SLES wash
# Chain of streptavidin (P22629 25-183): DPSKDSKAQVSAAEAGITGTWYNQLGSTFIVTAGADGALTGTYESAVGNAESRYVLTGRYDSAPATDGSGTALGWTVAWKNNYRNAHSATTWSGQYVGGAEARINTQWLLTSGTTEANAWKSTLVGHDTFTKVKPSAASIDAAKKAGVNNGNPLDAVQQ
substance,measurement,setting,value
HCP5-GGSGPGSGG-HCP5-K [(HCP5)2-biotin],binding of 40 nm fluorescently-labeled streptavidin-coated polystyrene particles to hair,[1],bound the particles to hair
same,deposition of beads on hair,[2],200 nm beads were deposited on the hair
same,perceptible color,[3]; 200 nm beads,did not exhibited perceptible color
same,perceptible color,[3]; 500 nm beads,exhibited perceptible color
same,"color intensity value (0-5, 0 no color deposition, 5 deepest color)",[3],4
same,color measurement (0-5 color scale),[3]; [7],0
same,color measurement (0-5 color scale),[3]; [8],0
same,color measurement (0-5 color scale),[3]; [9],3
same,color measurement (0-5 color scale),[3]; [10],0
TPPELAHTPHHLAQTRLTDRK-Biotin [Hair4],MB50,[4]; substrate 90% gray hair,0.15 µM
same,MB50,[4]; substrate Unipure Red particle,5 µM
THSTHNHGSPRHTNADAGNPK-Biotin [HCP1],MB50,[4]; substrate 90% gray hair,0.044 µM
same,MB50,[4]; substrate Unipure Red particle,9.8 µM
GSDPG-IB5A-GGGGSGGGGSG-HHHHHH (GSDPGTPPELLHGAPRSGGGGSGGGGSGHHHHHH) [HC205],"Strength of binding (5 highest, 0 lowest)",[5],0
HCP5-GGSGPGSGG-HCP5 [(HCP5)2],"color intensity value (0-5, 0 no color deposition, 5 deepest color)",[3],0
same,color scale score (0-5),"[3]; Table 16, streptavidin-coated iron oxide beads, sequential coloring method",0
same,color measurement (0-5 color scale),[3]; [7],0
same,color measurement (0-5 color scale),"[3]; Table 17, 500 nm particles, initial, before washing with water",0
same,color measurement (0-5 color scale),[3]; [8],0
same,color measurement (0-5 color scale),[3]; [9],0
same,color measurement (0-5 color scale),[3]; [10],0
same,color measurement (0-5 color scale),"[3]; Table 19, 500 nm particles, after 0.25% SLES wash",0
MLSENWLTNHPQN [SB33N],pKd,[6],~4.00
AQSQLPDKHSGLHERAPQRYK-Biotin [Hair2],MB50,[4]; substrate 90% gray hair,0.25 µM
same,MB50,[4]; substrate Unipure Red particle,6.8 µM
HINKTNPHQGNHHSEKTQRQK-Biotin [MEA4],MB50,[4]; substrate 90% gray hair,0.061 µM
same,MB50,[4]; substrate Unipure Red particle,8.7 µM
GSDPG-Gray3-GGG-Gray3-GGGGSGGGGSG-HHHHHH (GSDPGHDHKNQKETHQRHAAGGGHDHKNQKETHQRHAAGGGGSGGGGSGHHHHHH) [HC214],"Strength of binding (5 highest, 0 lowest)",[5],0
